Data taken from patent publication US20030083469A1, “Allosteric control of nuclear hormone receptors” (The Salk Institute for Biological Studies, priority 1995, published 2003).

What was measured:
RAR-RXR heterodimers = molecular target: T1, RAR-RXR heterodimers (Homo sapiens, UniProt P10276+P19793); assay: Transient transfection analysis of RAR-RXR heterodimers (TK-LUC reporter, CV-1 cells); format: cell-based
T1 construct: transient transfection analysis of full-length Nurrl and/or RXR; expressed in transfected cells; host or cells: CV-1
T1 sequence (P10276 1-462): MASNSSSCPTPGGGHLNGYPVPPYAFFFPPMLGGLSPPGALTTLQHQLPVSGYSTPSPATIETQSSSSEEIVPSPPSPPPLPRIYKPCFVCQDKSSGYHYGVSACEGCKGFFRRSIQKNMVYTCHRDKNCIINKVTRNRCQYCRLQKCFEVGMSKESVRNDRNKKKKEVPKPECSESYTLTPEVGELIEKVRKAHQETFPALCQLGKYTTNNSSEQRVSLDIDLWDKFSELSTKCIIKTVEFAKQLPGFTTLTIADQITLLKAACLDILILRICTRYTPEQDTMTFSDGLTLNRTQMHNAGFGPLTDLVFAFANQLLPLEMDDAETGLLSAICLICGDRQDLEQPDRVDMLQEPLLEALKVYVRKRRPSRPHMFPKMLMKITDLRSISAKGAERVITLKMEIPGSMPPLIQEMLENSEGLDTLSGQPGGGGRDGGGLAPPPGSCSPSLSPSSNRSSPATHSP
T1 sequence (P19793 1-462): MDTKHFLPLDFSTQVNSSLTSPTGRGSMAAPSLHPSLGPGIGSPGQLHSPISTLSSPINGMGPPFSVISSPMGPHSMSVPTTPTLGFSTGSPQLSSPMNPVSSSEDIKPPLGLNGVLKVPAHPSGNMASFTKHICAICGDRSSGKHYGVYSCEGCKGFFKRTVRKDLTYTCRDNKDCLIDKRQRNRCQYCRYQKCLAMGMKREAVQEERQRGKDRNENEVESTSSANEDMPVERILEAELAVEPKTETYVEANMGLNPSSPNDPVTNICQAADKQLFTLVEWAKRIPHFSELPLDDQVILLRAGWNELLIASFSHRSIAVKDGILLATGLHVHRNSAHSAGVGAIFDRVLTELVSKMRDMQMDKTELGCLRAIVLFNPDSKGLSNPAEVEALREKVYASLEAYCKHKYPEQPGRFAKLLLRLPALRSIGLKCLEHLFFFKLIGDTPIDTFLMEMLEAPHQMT
Description: (§1) One day prior to transfection, cells were plated to 50-80% confluence using phenol-red free DMEM-FBS. Cells were transfected by lipofection using N-{2-(2,3)-dioleoyloxy)propyl-N,N,N-trimethyl ammonium methyl sulfate} according to the manufacturer's instructions (DOTAP, Boehringer Mannheim).
In the right panel of FIG. 2, cells were transfected with HRE×1 TK-LUC (300 ng/10^5 cells), CMX-hRARα (50 ng/10^5 cells) CMX-hRXRα (50 ng/10^5 cells) and CMX-βgal (500 ng/10^5 cells) . […] Normalized luciferase activity was determined and plotted as fold-activation relative to untreated cells.

GAL-RXR+T3R LBD = molecular target: T2, GAL-RXR+T3R LBD (Homo sapiens, UniProt P10828+P19793); assay: Transient transfection analysis of GAL-RXR LBD in the presence of T3R LBD; format: cell-based
T2 construct: human RXRα LBD (Glu 203 - Thr 462); human T3Rβ LBD (Leu 173 - Asp 456); expressed in transfected cells; host or cells: CV-1
T2 sequence (P19793 203-462 limits assumed): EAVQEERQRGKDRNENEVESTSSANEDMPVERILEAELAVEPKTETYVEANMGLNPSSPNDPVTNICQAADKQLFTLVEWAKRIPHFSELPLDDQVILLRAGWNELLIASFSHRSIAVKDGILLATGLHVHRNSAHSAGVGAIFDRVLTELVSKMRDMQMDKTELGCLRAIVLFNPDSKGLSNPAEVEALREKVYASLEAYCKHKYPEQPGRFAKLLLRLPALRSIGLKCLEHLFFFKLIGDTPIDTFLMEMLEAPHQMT
T2 sequence (P10828 178-461 limits assumed): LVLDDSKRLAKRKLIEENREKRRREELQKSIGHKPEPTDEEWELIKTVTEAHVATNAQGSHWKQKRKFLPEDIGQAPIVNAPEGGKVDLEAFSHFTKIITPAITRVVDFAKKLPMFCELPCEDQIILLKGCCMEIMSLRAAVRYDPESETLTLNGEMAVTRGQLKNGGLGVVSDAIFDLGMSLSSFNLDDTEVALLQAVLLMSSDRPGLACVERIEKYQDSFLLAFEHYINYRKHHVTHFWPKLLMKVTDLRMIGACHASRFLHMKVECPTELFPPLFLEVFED
Description: as §1
Normalized luciferase activity was determined and plotted as fold-activation relative to untreated cells.

[1] = molecular target: T3, Nurrl-RXR heterodimer complex (Homo sapiens, UniProt P19793); assay: Transient transfection of full-length Nurrl and RXR on NBRE x3 TK-LUC; format: cell-based, mouse Nurrl, human RXRα
T3 construct: transient transfection analysis of full-length Nurrl and/or RXR; expressed in transfected cells; host or cells: CV-1
Description: as §1
Thus, CV-1 cells were tranfected with NBRE×3 TK-LUC (300 ng/10^5 cells) , CMX-βgal (500 ng/10^5 cells), alone or with CMX-Nurrl (100 ng/10^5 cells) and CMX-hRXRα (100 ng/10^5 cells) as indicated in FIG. 7B. Following transfection, cells were treated with or without 100 nM LG69. Normalized luciferase activity was determined and plotted as reporter activity.
(§2) Using sub-optimal amounts of RXR-expression vector, the CRBPII reporter was compared with a 3-copy NBRE reporter as follows. Cells were transfected as described with respect to FIG. 7B, but with a 5-fold lower amount of CMX-hRXRα (20 ng/10^5 cells). CRBPII TK-LUC (300 ng/10^5 cells) was used where indicated.

RXR = molecular target: T4, RXR (Homo sapiens, UniProt P19793); assay: Transient transfection of RXR on CRBPII TK-LUC reporter; format: cell-based; conditions: limiting RXR (20 ng/10^5 cells); LG69
T4 construct: transient transfection analysis of full-length Nurrl and/or RXR; expressed in transfected cells; host or cells: CV-1
T4 sequence (P19793 1-462): T1 sequence (P19793 1-462)
Description: CV-1 cells were grown in Dulbecco's Modified Eagle's medium supplemented with 10% resin-charcoal stripped (Samuels et al., Endocrinology 105:80-85 (1979)) fetal bovine serum, 50 U/ml penicillin G and 50 μg/ml streptomycin sulfate (DMEM-FBS) at 37° C. in 5% CO2. One day prior to transfection, cells were plated to 50-80% confluence using phenol-red free DMEM-FBS. Cells were transfected by lipofection using N-{2-(2,3)-dioleoyloxy)propyl-N,N,N-trimethyl ammonium methyl sulfate} according to the manufacturer's instructions (DOTAP, Boehringer Mannheim). […]. All points were performed in triplicate in each experiment and varied by less than 10%. Each experiment was repeated three or more times with similar results.
as §2

T3 sequence (Q06219 whole entry partner, one chain of several): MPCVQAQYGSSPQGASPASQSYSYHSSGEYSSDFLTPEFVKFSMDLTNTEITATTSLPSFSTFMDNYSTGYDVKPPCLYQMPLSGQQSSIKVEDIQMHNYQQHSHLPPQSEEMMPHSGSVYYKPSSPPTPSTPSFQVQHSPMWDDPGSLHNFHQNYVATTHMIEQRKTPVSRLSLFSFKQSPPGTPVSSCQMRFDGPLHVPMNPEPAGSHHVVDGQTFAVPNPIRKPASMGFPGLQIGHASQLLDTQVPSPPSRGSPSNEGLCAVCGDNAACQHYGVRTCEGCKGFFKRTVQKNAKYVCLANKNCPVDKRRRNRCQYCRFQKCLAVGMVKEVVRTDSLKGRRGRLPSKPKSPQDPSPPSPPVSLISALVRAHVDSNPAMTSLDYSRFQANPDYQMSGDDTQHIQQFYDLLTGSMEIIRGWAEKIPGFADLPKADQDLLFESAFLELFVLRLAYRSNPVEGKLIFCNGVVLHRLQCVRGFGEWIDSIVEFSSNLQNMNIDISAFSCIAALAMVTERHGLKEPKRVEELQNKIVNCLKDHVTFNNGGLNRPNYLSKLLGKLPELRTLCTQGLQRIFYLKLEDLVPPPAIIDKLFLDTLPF

Structure (SMILES): CC=C(c1ccc(C(=O)O)cc1)c1cc2c(cc1C)C(C)(C)CCC2(C)C [LG69, 4-{1-(3,5,5,8,8-pentamethyl-5,6,7,8-tetrahydro-2-napthalenyl)-1-propenyl}benzoic acid]
- transcriptional activity with Am580+LG69 over that seen with AM580 alone (RAR-RXR heterodimers; 50 nM Am580+100 nM LG69, full-length receptors): increased transcriptional activity
- responsiveness of transfected cells to ligand (luciferase fold-activation) (RAR-RXR heterodimers; CV-1 cells transfected with RARα and RXRα, 50 nM Am580 or 100 nM LG69): unresponsive
- activity of T3+LG69 compared with T3 alone (GAL-RXR+T3R LBD; 100 nM T3+100 nM LG69): slightly less activity
- fold response to LG69 (GAL-RXR+T3R LBD; GAL-RXR+T3R LBD (unliganded), 100 nM LG69): 57 fold
- responsiveness of the Nurrl-RXR complex ([1]; Nurrl and RXR co-expressed, NBRE reporter): strongly responsive
- response of Nurrl-RXR on NBRE reporter ([1]; limiting RXR (20 ng/10^5 cells)): potent response
- activation of the CRBPII reporter (RXR): minimal activation
